Test results as given in US5084469A, “New substituted benzothiazolinones” (Adir et Compagnie, priority 1989, dated 1992).

Experiment: Analgesic activity (Siegmund test, phenyl-p-benzoquinone writhing)
Type: in vivo
Details: Mus musculus; oral, mice, 1 hour before i.p. phenyl-p-benzoquinone; writhing counted 5th to 10th minute; read-out: ED50 (dose producing a 50% decrease in the number of writhing movements)
Procedure: The activity against pain was investigated in mice (20-25 g) according to a protocol derived from the technique described by SIEGMUND (SIEGMUND E.A., R.A., CADMUS & GOLU, J. Pharm. Exp. Ther. 119, […], 1954). The mice, randomized in batches of 12 animals, received the treatment orally (excipient for the controls) 1 hour before the intraperitoneal injection of a 0.02% aqueousalcoholic solution of phenyl-p-benzoquinone (Sigma). The writhing movements are counted between the 5th and 10th minute after injection.
The percentage activity obtained was evaluated for each dose (% decrease in the number of writhing movements in the treated animals relative to the controls). An ED50, the dose producing a 50% activity, was determined for each product.

O=c1[nH]c2ccc(Cc3ccccc3)cc2s1 [Example 1, 6-Benzylbenzothiazolinone]
ED50: ~2 mg/kg
